In one series the test system is lung cells. The series is described as follows: Lung cell proliferation by EdU incorporation. Format: in vivo. The settings on record: Ova s/c mice, treated versus non-treated. The method, then:
ASM hyperplasia was determined by incooperation of EdU into the DNA of newly formed cells. Herein, at the end of the ovalbumin sensitization and challenge protocol, mice received a single i.p. injection of EdU (Invitrogen, Carlsbad, Calif.) at a dose of 100 mg/kg. Mice were euthanized 4 hours after injection and the lungs formalin fixed, harvested and paraffin embedded. 6 μm sections of formalin fixed and paraffin embedded lung sections were mounted onto Fisher Superfrost Plus Slides. EdU staining was conducted using Click-iT™ EdU imaging kit (Invitrogen, Carlsbad, Calif.) according to manufacturer's instructions. Briefly lungs were deparaffinized in histoclear and rehydrated in graded ethanol. Tissue sections were washed twice with 3% bovine serum albumin (BSA) in PBS and permeablized with 0.5% Triton X-100 in PBS for 20 minutes. The sections were again washed twice with 3% BSA in PBS and then incubated with a Click-iT™ reaction cocktail containing Click-iT™ reaction buffer, CuSO4, Alexa Fluor® 488 Azide, and reaction buffer additive for 30 minutes in the dark. […] Lung sections of non-treated and GL-II-93 treated Ova s/c mice were analyzed for the incooperation of EdU, a thymidine analog that can be visualized after click chemistry with a fluorescent azide. For the negative control EdU was not injected resulting in no visible fluorescence. […]

Series [1] concerns CD4+ T-cells isolated from ova s/c BALB/c mice spleen. The series is described as follows: Automated patch clamp of CD4+ T cells with 600 nM GABA. The class given is cell-based, mouse. Particulars: increasing concentrations of compound, 3 seconds. The method, then: Direct interaction between compounds and CD4^+ T cells may be investigated by electrophysiology. Therefore, CD4^+ T cells may be isolated from the spleen of asthmatic mice and treated with compounds during an automated patch clamp experiment.
To determine the effect of compounds on lymphocytes, CD4^+ T cells from Ova S/C mice were isolated and their interaction with compounds was measured by automated patch clamp. Splenocytes from ova s/c BALB/c mice were prepared following BD Biosciences instructions for preparation of murine splenocytes and red blood cell lysed using BD Pharm Lyse™ lysing solution (BD Biosciences, San Jose, Calif.). Cells were maintained in suspension in RPMI 1640 medium with L-glutamine (Thermo Fisher Scientific Inc., Rockford, Ill.) supplemented with 10% (v/v) fetal bovine serum, 10 μM 2-mercaptoethanol and 1% penicillin/streptomycin in the presence or absence of 100 μg/mL ovalbumin. The cells were maintained in 5% CO2, 95% humidified air at 37° C. for 48 hours. The IonFlux plate layout consists of units of 12 wells: two wells contain intracellular solution (ICS containing […], 1 mM CaCl2, 1 mM MgCl2, 11 mM EGTA, 10 mM HEPES, pH 7.2 with CsOH), one contains cells diluted in extracellular solution (ECS containing 140 mM NaCl, 5 mM […] KCl, 2 mM CaCl2, 1 mM MgCl2, 5 mM D-glucose monohydrate, and 10 mM HEPES, pH 7.4 with NaOH), eight contain the compounds of interest diluted in ECS, and one well is for waste collection. Cells are captured from suspension by applying suction to microscopic channels in ensemble recording arrays. Once the array is fully occupied, the applied suction breaks the membranes of captured cells, which establishes whole cell voltage clamp. For compound applications, pressure is applied to the appropriate compound wells, which introduces the compound into the extracellular solution rapidly flowing over the cells. For recording GABAAR induced currents, cell arrays were voltage clamped at a hyperpolarizing holding potential of −50 mV. Prior to use on the automated patch clamp, cells were centrifuged at 380 g for 5 minutes and resuspended gently in ECS. This was repeated two more times before the cells were dispensed into the plate. GABA and muscimol were diluted to appropriate concentrations in ECS to appropriate concentrations before application and data recorded. […] The concentration-dependent current responses of CD4+ T-cells in the presence of 600 nM GABA and increasing concentration of compounds were carried out with an N of 16 and normalized to the current response of 600 nM GABA.
Background: In patch-clamp work, channel activity is measured electrically.

Series [2] can be described thus: Pharmacokinetic analysis in blood, lungs and brain. The settings on record: mouse, 25 mg/kg oral gavage.

The record followed here is patent US11447495B2, “Substituted benzo[f]imidazo[1,5-a][1,4]diazepines as GABA(a) receptor modulators” (priority 2016, dated 2022).

Molecules are shown by their SMILES.

For the compound `C[C@H]1N=C(c2ccccc2F)c2cc(Br)ccc2-n2cnc(C(=O)O)c21` [GL-II-93, (R)-8-bromo-6-(2-fluorophenyl)-4-methyl-4H-benzo[f]imidazo[1,5-a][1,4]diazepine-3-carboxylic acid], the “proliferation of lung cells (EdU)” value with lung cells is given as “Non-treated Ova S/C mice showed a high proliferation rate in comparison to GL-II-93 treated animals”. For the same compound, in series [1], the “GABA-induced membrane current of CD4+ T-cells” value (shortened to “GABA-induced membrane current”) is listed as “evoked a very pronounced GABA-induced transmembrane current”. Further, the bioavailability entry in series [2] is recorded as “excellent bioavailability”.
With `CCOC(=O)c1ncn2c1[C@@H]1CCCN1C(=O)c1cc(O)ccc1-2` [RJ-02-50, ethyl (S)-7-hydroxy-9-oxo-11,12,13,13a-tetrahydro-9H-benzo[e]imidazo[5,1-c]pyrrolo[1,2-a][1,4]diazepine-1-carboxylate], the “GABA-induced membrane current” value in series [1] is recorded as “potentiated the GABA-induced membrane current more than SH-053-2F′F—R-CH3-Acid”. The bioavailability result in series [2] is “excellent bioavailability”.
In the case of `O=C1c2cc(O)ccc2-n2cnc(-c3cnco3)c2[C@@H]2CCCN12` [RJ-03-30, (S)-7-hydroxy-1-(oxazol-5-yl)-11,12,13,13a-tetrahydro-9H-benzo[e]imidazo[5,1-c]pyrrolo[1,2-a][1,4]diazepin-9-one], the “GABA-induced membrane current” value in series [1] is recorded as “evoked a very pronounced GABA-induced transmembrane current”.
Turning to `C#Cc1ccc2c(c1)C(c1ccccc1F)=N[C@H](C)c1c(C(=O)O)ncn1-2` [SH-053-2′F-R-CH3-Acid, (R)-8-ethynyl-6-(2-fluorophenyl)-4-methyl-4H-benzo[f]imidazo[1,5-a][1,4]diazepine-3-carboxylic acid], the “GABA-induced membrane current” value in series [1] is given as “RJ-02-50 potentiated the GABA-induced membrane current more than SH-053-2F′F—R-CH3-Acid”. Moreover, the bioavailability entry in series [2] was “excellent bioavailability”.
